# Literature values in US9452976B2, “Pactamycin analogs and methods of making thereof” (Oregon State University, priority 2007, dated 2016).
# Columns and labels:
# [1] = tested on: Gram-positive and Gram-negative bacteria
# [2] = reason clinical application was abandoned
structure (smiles),measurement,setting,value
"CC[C@]1(NC(=O)N(C)C)[C@@H](N)[C@H](Nc2cccc(C(C)=O)c2)[C@](O)(COC(=O)c2c(C)cccc2O)[C@]1(C)O [7-Deoxypactamycin, 7-deoxypactamycin]","activity against a number of Gram-positive and Gram-negative bacteria, compared with pactamycin",[1]; relative to pactamycin,equally active
"CC(=O)c1cccc(N[C@H]2[C@H](N)[C@@](NC(=O)N(C)C)([C@H](C)O)[C@@](C)(O)[C@@]2(O)COC(=O)c2c(C)cccc2O)c1 [Pactamycin, pactamycin]",anti-tumor activity,tumor,strong anti-tumor activity
same,toxicity,[2],high toxicity
same,antibacterial activities against Gram-positive and Gram-negative bacteria,"[1]; Bhuyan, Appl. Microbiol. 1962",potent antibacterial activities
CC(=O)c1cccc(N[C@H]2[C@H](N)[C@]3(NC(=O)O[C@H]3C)[C@@](C)(O)[C@@]2(O)COC(=O)c2c(C)cccc2O)c1 [pactamycate],bioactivity of the cyclic derivative formed by attack of C-7 hydroxyl on the carbamoyl carbonyl,[1],inactive
